In article PMC11995724, “Antibiotic target discovery by integrated phenotypic and activity-based profiling of electrophilic fragments” (Cell chemical biology, 2025):

Assay: in vitro
Details: human, hek293t cells

C=CC(=O)N(Cc1cnn(C2CCC2)c1)C1CCCc2occc21 (stereo not shown) [2-G07, N-[(1-cyclobutyl-1H-pyrazol-4-yl)methyl]-N-(4,5,6,7-tetrahydro-1-benzofuran-4-yl)prop-2-enamide]
viability at 48 h, 25 µM: 103%

C=CC(=O)NCCc1cscn1 [2-G08, N-[2-(1,3-thiazol-4-yl)ethyl]prop-2-enamide]
viability at 48 h, 25 µM: 87.1%

C=CC(=O)N(C)Cc1cccc(Cl)c1 [2-G09, N-[(3-chlorophenyl)methyl]-N-methylprop-2-enamide]
viability at 48 h, 25 µM: 60.6%

C=CC(=O)N1CCC(C(=O)NCc2c[nH]cn2)CC1 [2-G10, N-[(1H-imidazol-4-yl)methyl]-1-(prop-2-enoyl)piperidine-4-carboxamide]
viability at 48 h, 25 µM: 98.7%

C=CC(=O)Nc1cc(NC(=O)c2cnn(-c3ccccc3)c2)ccc1F [2-G11, N-[4-fluoro-3-(prop-2-enamido)phenyl]-1-phenyl-1H-pyrazole-4-carboxamide]
viability at 48 h, 25 µM: 0.749%

C=CC(=O)NCCC(=O)Nc1c(C)c(C)nn1C [2-G12, N-{2-[(1,3,4-trimethyl-1H-pyrazol-5-yl)carbamoyl]ethyl}prop-2-enamide]
viability at 48 h, 25 µM: 93%

C=CC(=O)N(Cc1c(C)nn(CC)c1C)c1ccc2c(c1)COC2 [2-G13, N-(1,3-dihydro-2-benzofuran-5-yl)-N-[(1-ethyl-3,5-dimethyl-1H-pyrazol-4-yl)methyl]prop-2-enamide]
viability at 48 h, 25 µM: 80.2%

C=CC(=O)N(CC)CC(=O)N1CCCC(F)(F)C1 [2-G14, N-[2-(3,3-difluoropiperidin-1-yl)-2-oxoethyl]-N-ethylprop-2-enamide]
viability at 48 h, 25 µM: 97.5%

C=CC(=O)N1CCC(NC(C)=O)(c2noc(C)n2)C1 (stereo not shown) [2-G16, N-[3-(5-methyl-1,2,4-oxadiazol-3-yl)-1-(prop-2-enoyl)pyrrolidin-3-yl]acetamide]
viability at 48 h, 25 µM: 94.8%

C=CC(=O)NC1CCOCC1 [2-G17, N-(oxan-4-yl)prop-2-enamide]
viability at 48 h, 25 µM: 93.3%

C=CC(=O)N1CCC(c2ncc(C(=O)O)o2)CC1 [2-G19, 2-[1-(prop-2-enoyl)piperidin-4-yl]-1,3-oxazole-5-carboxylic acid]
viability at 48 h, 25 µM: 101%

C=CC(=O)N1CCC(Cc2noc(C)n2)CC1 [2-G22, 1-{4-[(5-methyl-1,2,4-oxadiazol-3-yl)methyl]piperidin-1-yl}prop-2-en-1-one]
viability at 48 h, 25 µM: 103%

C=CC(=O)NCc1cn(C)nc1-c1ccccn1 [2-H03, N-{[1-methyl-3-(pyridin-2-yl)-1H-pyrazol-4-yl]methyl}prop-2-enamide]
viability at 48 h, 25 µM: 79.4%

C=CC(=O)N1CCC(C(=O)Nc2cccc(N3CCCC3=O)c2)CC1 [2-H04, N-[3-(2-oxopyrrolidin-1-yl)phenyl]-1-(prop-2-enoyl)piperidine-4-carboxamide]
viability at 48 h, 25 µM: 84.3%

C=CC(=O)N1CCC(C(=O)NCCC2CCS(=O)(=O)C2)CC1 (stereo not shown) [2-H05, N-[2-(1,1-dioxo-1lambda6-thiolan-3-yl)ethyl]-1-(prop-2-enoyl)piperidine-4-carboxamide]
viability at 48 h, 25 µM: 78.2%

C=CC(=O)NCc1nonc1C [2-H07, N-[(4-methyl-1,2,5-oxadiazol-3-yl)methyl]prop-2-enamide]
viability at 48 h, 25 µM: 57.6%

C=CC(=O)N(CC)CC(=O)N1CCc2c(ncn2CC)C1 [2-H08, N-ethyl-N-(2-{1-ethyl-1H,4H,5H,6H,7H-imidazo[4,5-c]pyridin-5-yl}-2-oxoethyl)prop-2-enamide]
viability at 48 h, 25 µM: 84.8%

C=CC(=O)N1CCC(C(=O)N2CCC(CC(=O)N(C)C)CC2)CC1 [2-H09, N,N-dimethyl-2-{1-[1-(prop-2-enoyl)piperidine-4-carbonyl]piperidin-4-yl}acetamide]
viability at 48 h, 25 µM: 61.5%

C=CC(=O)N1CCC(C(=O)Nc2cnn(COC)c2)CC1 [2-H10, N-[1-(methoxymethyl)-1H-pyrazol-4-yl]-1-(prop-2-enoyl)piperidine-4-carboxamide]
viability at 48 h, 25 µM: 79%

C=CC(=O)N(C)Cc1nnc(C2CC2)n1C [2-H11, N-[(5-cyclopropyl-4-methyl-4H-1,2,4-triazol-3-yl)methyl]-N-methylprop-2-enamide]
viability at 48 h, 25 µM: 72.8%

C=CC(=O)N1CCC(C(=O)Nc2ccn(CC(=O)N(C)C)n2)CC1 [2-H12, N-{1-[(dimethylcarbamoyl)methyl]-1H-pyrazol-3-yl}-1-(prop-2-enoyl)piperidine-4-carboxamide]
viability at 48 h, 25 µM: 71%

C=CC(=O)NC(C)c1ccc(Oc2ccccc2)c(F)c1 (stereo not shown) [2-H13, N-[1-(3-fluoro-4-phenoxyphenyl)ethyl]prop-2-enamide]
viability at 48 h, 25 µM: 68.8%

C=CC(=O)N1CCC(C(=O)N2CCC(C(C)(C)O)CC2)CC1 [2-H14, 1-{4-[4-(2-hydroxypropan-2-yl)piperidine-1-carbonyl]piperidin-1-yl}prop-2-en-1-one]
viability at 48 h, 25 µM: 60.8%

C=CC(=O)NCCC1COCCO1 (stereo not shown) [2-H15, N-[2-(1,4-dioxan-2-yl)ethyl]prop-2-enamide]
viability at 48 h, 25 µM: 74.3%

C=CC(=O)N1CCC(C)C1 (stereo not shown) [2-H17, 1-(3-methylpyrrolidin-1-yl)prop-2-en-1-one]
viability at 48 h, 25 µM: 71.5%

C=CC(=O)N1CCC(C(=O)N2CCC(NC(=O)NC)CC2)CC1 [2-H18, 3-methyl-1-{1-[1-(prop-2-enoyl)piperidine-4-carbonyl]piperidin-4-yl}urea]
viability at 48 h, 25 µM: 83%

C=CC(=O)NC(C(N)=O)c1ccccc1F (stereo not shown) [2-H19, N-[carbamoyl(2-fluorophenyl)methyl]prop-2-enamide]
viability at 48 h, 25 µM: 51.9%

C=CC(=O)N(C)CC(=O)N1CCC(c2nc(-c3ccccc3)n[nH]2)CC1 [2-H20, N-methyl-N-{2-oxo-2-[4-(3-phenyl-1H-1,2,4-triazol-5-yl)piperidin-1-yl]ethyl}prop-2-enamide]
viability at 48 h, 25 µM: 67.6%

C=CC(=O)N1CC[C@H](NS(C)(=O)=O)C1 [2-H21, N-[(3S)-1-(prop-2-enoyl)pyrrolidin-3-yl]methanesulfonamide]
viability at 48 h, 25 µM: 60.7%

C=CC(=O)Nc1cc(NC(=O)[C@H]2C[C@@H](C(C)=O)C2(C)C)ccc1F [2-H22, (1S,3R)-3-acetyl-N-[4-fluoro-3-(prop-2-enamido)phenyl]-2,2-dimethylcyclobutane-1-carboxamide]
viability at 48 h, 25 µM: 97.4%

C=CC(=O)N1CC(c2ncon2)C1 [2-I03, 1-[3-(1,2,4-oxadiazol-3-yl)azetidin-1-yl]prop-2-en-1-one]
viability at 48 h, 25 µM: 181%

C=CC(=O)N1CCC(C(=O)N2CCn3ccnc32)CC1 [2-I04, 1-(4-{1H,2H,3H-[1,3]diazolo[1,2-a]imidazole-1-carbonyl}piperidin-1-yl)prop-2-en-1-one]
viability at 48 h, 25 µM: 99.3%

C=CC(=O)NCCN1CCOCC1C (stereo not shown) [2-I05, N-[2-(3-methylmorpholin-4-yl)ethyl]prop-2-enamide]
viability at 48 h, 25 µM: 79.2%

C=CC(=O)N1CCC(c2nnnn2C)CC1 [2-I06, 1-[4-(1-methyl-1H-1,2,3,4-tetrazol-5-yl)piperidin-1-yl]prop-2-en-1-one]
viability at 48 h, 25 µM: 95.6%

C=CC(=O)N1CCOC(c2ccccc2)C1 (stereo not shown) [2-I07, 1-(2-phenylmorpholin-4-yl)prop-2-en-1-one]
viability at 48 h, 25 µM: 118%

C=CC(=O)N(CC1CCOCC1)C1CC1 [2-I08, N-cyclopropyl-N-[(oxan-4-yl)methyl]prop-2-enamide]
viability at 48 h, 25 µM: 88%

C=CC(=O)NC[C@@H]1C[C@H](F)CN1Cc1csc(C)n1 [2-I09, N-{[(2S,4S)-4-fluoro-1-[(2-methyl-1,3-thiazol-4-yl)methyl]pyrrolidin-2-yl]methyl}prop-2-enamide]
viability at 48 h, 25 µM: 192%

C=CC(=O)N1CCC(c2cnn(C)c2)CC1 [2-I10, 1-[4-(1-methyl-1H-pyrazol-4-yl)piperidin-1-yl]prop-2-en-1-one]
viability at 48 h, 25 µM: 83.2%

C=CC(=O)NC(C)c1nnnn1-c1ccccc1 (stereo not shown) [2-I11, N-[1-(1-phenyl-1H-1,2,3,4-tetrazol-5-yl)ethyl]prop-2-enamide]
viability at 48 h, 25 µM: 196%

C=CC(=O)NCCNC(=O)c1c(C)cc(C)nc1C [2-I12, N-{2-[(2,4,6-trimethylpyridin-3-yl)formamido]ethyl}prop-2-enamide]
viability at 48 h, 25 µM: 104%

C=CC(=O)NCc1cn(-c2ccccc2)nn1 [2-I13, N-[(1-phenyl-1H-1,2,3-triazol-4-yl)methyl]prop-2-enamide]
viability at 48 h, 25 µM: 76.1%

C=CC(=O)N1CCC(C(=O)N(C)Cc2ccon2)CC1 [2-I14, N-methyl-N-[(1,2-oxazol-3-yl)methyl]-1-(prop-2-enoyl)piperidine-4-carboxamide]
viability at 48 h, 25 µM: 90.3%

C=CC(=O)N1CCC(c2ccnn2C)CC1 [2-I15, 1-[4-(1-methyl-1H-pyrazol-5-yl)piperidin-1-yl]prop-2-en-1-one]
viability at 48 h, 25 µM: 96.5%

C=CC(=O)NC1CC2(CCC(C(=O)O)CC2)C1 (stereo not shown) [2-I16, 2-(prop-2-enamido)spiro[3.5]nonane-7-carboxylic acid]
viability at 48 h, 25 µM: 92.8%

C=CC(=O)NC(c1nc(C)cs1)C(F)(F)F (stereo not shown) [2-I17, N-[2,2,2-trifluoro-1-(4-methyl-1,3-thiazol-2-yl)ethyl]prop-2-enamide]
viability at 48 h, 25 µM: 102%

C=CC(=O)Nc1cccc(C(=O)C(C)(C)C)c1 [2-I18, N-[3-(2,2-dimethylpropanoyl)phenyl]prop-2-enamide]
viability at 48 h, 25 µM: 105%

C=CC(=O)N1CC2(CCCC2)CC1CO (stereo not shown) [2-I19, 1-[3-(hydroxymethyl)-2-azaspiro[4.4]nonan-2-yl]prop-2-en-1-one]
viability at 48 h, 25 µM: 82.4%

C=CC(=O)N(C)CC(=O)NCc1c(O)nnc(C)c1C [2-I20, N-({[(3-hydroxy-5,6-dimethylpyridazin-4-yl)methyl]carbamoyl}methyl)-N-methylprop-2-enamide]
viability at 48 h, 25 µM: 91.6%

C=CC(=O)Nc1ccc(C(=O)N2CCCC2C(=O)NC2CC2)cc1 (stereo not shown) [2-I21, N-cyclopropyl-1-[4-(prop-2-enamido)benzoyl]pyrrolidine-2-carboxamide]
viability at 48 h, 25 µM: 175%

C=CC(=O)Nc1ccc(N2CCCCC2)c(F)c1 [2-I22, N-[3-fluoro-4-(piperidin-1-yl)phenyl]prop-2-enamide]
viability at 48 h, 25 µM: 92.5%

C=CC(=O)NCC1CCc2nnc(C(C)C)n2C1 (stereo not shown) [2-J03, N-{[3-(propan-2-yl)-5H,6H,7H,8H-[1,2,4]triazolo[4,3-a]pyridin-6-yl]methyl}prop-2-enamide]
viability at 48 h, 25 µM: 60.6%

C=CC(=O)N(C)CC(=O)N1CCOC(c2ccccc2Cl)C1 (stereo not shown) [2-J04, N-{2-[2-(2-chlorophenyl)morpholin-4-yl]-2-oxoethyl}-N-methylprop-2-enamide]
viability at 48 h, 25 µM: 72.1%
